Activity calls are given as the source filed them.
Legend:
Fatty acid synthase [1] = biological target: T1, Fatty acid synthase (Homo sapiens, UniProt P49327); assay: FAS thioesterase domain inhibitors, dose response, biochemical, endpoint fluorescence intensity, uHTS hits (AID 624327); format: functional;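 further: fluorescence from hydrolysis of an O-methyl fluorescein acyl ester substrate by the enzyme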
[2] = biological target: Endoplasmic reticulum aminopeptidase 1 (Homo sapiens, UniProt Q9NZ08); assay: ERAP1 aminopeptidase inhibitors, dose response, biochemical, cherry-pick, set 2, plate reader (AID 743314)
[3] = biological target: Sphingosine 1-phosphate receptor 2 (Homo sapiens, UniProt O95136); assay: Dose Response Cell Based Assay for Agonists of the S1P2 Receptor. [Related pubchem assays: 729, 736, 843 ]; format: functional
Sphingosine 1-phosphate receptor 2, sequence (O95136 whole entry): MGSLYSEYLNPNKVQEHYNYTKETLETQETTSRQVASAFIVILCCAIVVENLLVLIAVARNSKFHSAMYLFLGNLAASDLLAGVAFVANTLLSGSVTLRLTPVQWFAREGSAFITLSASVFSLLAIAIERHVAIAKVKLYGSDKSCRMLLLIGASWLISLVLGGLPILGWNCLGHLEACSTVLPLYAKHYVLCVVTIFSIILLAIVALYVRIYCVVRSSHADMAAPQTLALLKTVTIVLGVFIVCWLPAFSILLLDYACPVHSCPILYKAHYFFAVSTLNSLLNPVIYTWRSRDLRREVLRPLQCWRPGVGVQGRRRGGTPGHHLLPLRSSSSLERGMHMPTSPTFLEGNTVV

[4] = biological target: Sphingosine 1-phosphate receptor 4 (Homo sapiens, UniProt O95977); assay: Fluorescence dose response cell-based high throughput screening assay for agonists of the Sphingosine 1-Phosphate Receptor 4 (S1P4). [Related pubchem assays: 1509 (Primary screen.), 1523 (Confirmation screen in triplicates.)]; format: functional
[5] = biological target: Sphingosine 1-phosphate receptor 1 (Homo sapiens, UniProt P21453); assay: Fluorescence-based counterscreen assay for S1P4 agonists: Cell-based dose response high throughput screening assay to identify agonists of the Sphingosine 1-Phosphate Receptor 1 (S1P1). [Related pubchem assays (depositor defined):AID1509, AID1523, AID1801, AID463107, AID463118, AID463119, AID463122, AID463123, AID463129, AID463225, AID504400, AID504460]; format: functional
Fatty acid synthase [6] = biological target: T1, Fatty acid synthase; assay: FAS thioesterase domain inhibitors, dose response, biochemical, kinetic fluorescence intensity (AID 624326); format: functional;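 further: rate of fluorescence rise from hydrolysis of a fluorogenic O-methyl fluorescein ester substrate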
Tumor necrosis factor = Tumor necrosis factor (Homo sapiens, UniProt P01375); assay: TNFa-triggered NF-kB activation inhibitors, SAR follow-up, cell-based, revised (AID 2337); format: functional
Tumor necrosis factor, sequence (P01375 whole entry, the tested form may be a part): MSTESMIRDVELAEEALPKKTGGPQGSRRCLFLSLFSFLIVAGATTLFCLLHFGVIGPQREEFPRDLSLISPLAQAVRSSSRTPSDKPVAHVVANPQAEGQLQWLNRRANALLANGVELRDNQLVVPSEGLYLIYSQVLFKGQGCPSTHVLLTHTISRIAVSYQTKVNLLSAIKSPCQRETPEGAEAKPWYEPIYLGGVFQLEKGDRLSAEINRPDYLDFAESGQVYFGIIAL

[7] = biological target: Nucleotide-binding oligomerization domain-containing protein 1 (Homo sapiens, UniProt Q9Y239); assay: NOD1 signaling inhibitors, SAR follow-up, revised (AID 2333); format: functional
Nucleotide-binding oligomerization domain-containing protein 1, sequence (Q9Y239 whole entry, the tested form may be a part): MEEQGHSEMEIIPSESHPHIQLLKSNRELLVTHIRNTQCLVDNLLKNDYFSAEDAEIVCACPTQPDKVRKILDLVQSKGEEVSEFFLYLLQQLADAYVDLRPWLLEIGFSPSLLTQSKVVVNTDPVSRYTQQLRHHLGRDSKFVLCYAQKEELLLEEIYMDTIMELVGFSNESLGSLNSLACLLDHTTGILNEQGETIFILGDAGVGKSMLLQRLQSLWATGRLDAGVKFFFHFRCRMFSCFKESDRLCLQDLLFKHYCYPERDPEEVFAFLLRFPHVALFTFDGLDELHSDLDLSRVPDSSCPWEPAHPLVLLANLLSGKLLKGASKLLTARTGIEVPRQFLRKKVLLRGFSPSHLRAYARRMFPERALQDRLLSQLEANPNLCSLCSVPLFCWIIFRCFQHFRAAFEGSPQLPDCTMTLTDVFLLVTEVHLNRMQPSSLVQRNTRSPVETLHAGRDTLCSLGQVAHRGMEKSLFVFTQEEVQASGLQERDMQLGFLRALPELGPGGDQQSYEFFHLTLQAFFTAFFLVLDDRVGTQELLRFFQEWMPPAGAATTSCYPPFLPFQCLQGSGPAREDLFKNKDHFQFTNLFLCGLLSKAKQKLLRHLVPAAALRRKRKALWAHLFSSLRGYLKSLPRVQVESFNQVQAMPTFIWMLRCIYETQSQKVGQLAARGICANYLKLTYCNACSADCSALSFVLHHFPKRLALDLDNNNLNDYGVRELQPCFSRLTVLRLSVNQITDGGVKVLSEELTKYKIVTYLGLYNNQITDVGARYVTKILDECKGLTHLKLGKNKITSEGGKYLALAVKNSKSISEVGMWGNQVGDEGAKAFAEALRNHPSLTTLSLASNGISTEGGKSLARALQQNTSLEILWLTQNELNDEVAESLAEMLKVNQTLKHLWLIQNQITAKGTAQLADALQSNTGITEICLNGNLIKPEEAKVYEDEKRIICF

HEK293 [8] = assay: NOD1 signaling inhibitors, primary screen, cell-based, luminescence, uHTS (AID 1578); format: functional; settings: Homo sapiens
HEK293 [9] = assay: cells; format: functional, cell-based; settings: Homo sapiens
HEK293 [10] = assay: NOD2 signaling inhibitors in MDP-stimulated cells, cell-based, uHTS, luminescence (AID 2001); format: functional; settings: Homo sapiens
HEK293 [11] = assay: cells; format: functional, cell-based; settings: Homo sapiens; remark: listed apart in the source
[12] = biological target: Nucleotide-binding oligomerization domain-containing protein 2 (Homo sapiens, UniProt Q9HC29); assay: NOD2 signaling inhibitors, cell-based, luminescence, uHTS, HEK293 (AID 1566); format: functional
Nucleotide-binding oligomerization domain-containing protein 2, sequence (Q9HC29 whole entry, the tested form may be a part): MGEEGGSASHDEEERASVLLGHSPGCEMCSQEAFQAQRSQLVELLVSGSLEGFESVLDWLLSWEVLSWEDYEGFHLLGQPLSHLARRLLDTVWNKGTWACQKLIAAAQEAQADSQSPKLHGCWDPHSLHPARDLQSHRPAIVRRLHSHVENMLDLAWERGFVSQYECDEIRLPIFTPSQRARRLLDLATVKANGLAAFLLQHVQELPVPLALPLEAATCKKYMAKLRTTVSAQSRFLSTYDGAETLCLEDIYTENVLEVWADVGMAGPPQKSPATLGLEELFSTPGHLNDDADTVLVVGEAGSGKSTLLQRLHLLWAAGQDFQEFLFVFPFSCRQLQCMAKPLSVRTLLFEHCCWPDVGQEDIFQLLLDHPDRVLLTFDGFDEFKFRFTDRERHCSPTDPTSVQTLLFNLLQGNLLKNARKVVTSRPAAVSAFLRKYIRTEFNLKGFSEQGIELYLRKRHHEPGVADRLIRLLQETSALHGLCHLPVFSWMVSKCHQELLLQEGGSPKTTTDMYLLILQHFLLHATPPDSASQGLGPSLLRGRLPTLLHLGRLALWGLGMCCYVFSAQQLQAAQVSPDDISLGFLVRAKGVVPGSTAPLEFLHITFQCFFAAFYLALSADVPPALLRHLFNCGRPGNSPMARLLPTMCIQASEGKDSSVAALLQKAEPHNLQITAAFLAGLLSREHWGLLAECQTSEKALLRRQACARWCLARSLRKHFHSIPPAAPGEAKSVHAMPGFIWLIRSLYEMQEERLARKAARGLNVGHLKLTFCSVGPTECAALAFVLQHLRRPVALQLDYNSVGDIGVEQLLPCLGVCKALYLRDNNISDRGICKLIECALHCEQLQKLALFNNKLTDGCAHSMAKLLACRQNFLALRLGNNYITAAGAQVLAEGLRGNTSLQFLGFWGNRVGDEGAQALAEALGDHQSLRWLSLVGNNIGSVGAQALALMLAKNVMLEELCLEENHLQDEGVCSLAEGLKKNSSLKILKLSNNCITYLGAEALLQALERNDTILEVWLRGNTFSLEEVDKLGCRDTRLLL

HEK293 [13] = assay: cells; settings: Homo sapiens
HEK293 [14] = assay: cells; format: functional, cell-based; settings: Homo sapiens; remark: listed apart in the source
[15] = cytotoxicity in MIN6 insulinoma cells, dose response, cytotoxicity control, cell-based, mouse insulinoma (AID 2122); format: functional;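 further: confirmatory high-throughput counterscreen run to flag cytotoxic compounds; mouse MIN-6 beta cells carrying an insulin promoter eGFP reporter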
[16] = insulin promoter down-regulators in MIN6 cells, imaging, high-content screening, mouse beta cells (AID 1628); format: functional
[17] = biological target: Intestinal-type alkaline phosphatase (Mus musculus, UniProt P24822); assay: mouse intestinal alkaline phosphatase activators, dose response, biochemical, luminescence, uHTS hits (AID 488783); format: functional
[18] = biological target: Intestinal-type alkaline phosphatase (Homo sapiens, UniProt P09923); assay: activation of human intestinal alkaline phosphatase – biochemical, dose response (AID 488873); format: functional
[19] = cytotoxicity in HEK-293T cells, dose response, cytotoxicity control for TCR NF-kB inhibitor project, luminescence, T-cell screen hits (AID 489026); format: functional, cell-based;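 further: cells exposed to compound about 14 hours before the viability readout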
[20] = biological target: T2, Apoptotic protease-activating factor 1 (Homo sapiens, UniProt O14727); format: functional
T2 sequence (O14727 whole entry): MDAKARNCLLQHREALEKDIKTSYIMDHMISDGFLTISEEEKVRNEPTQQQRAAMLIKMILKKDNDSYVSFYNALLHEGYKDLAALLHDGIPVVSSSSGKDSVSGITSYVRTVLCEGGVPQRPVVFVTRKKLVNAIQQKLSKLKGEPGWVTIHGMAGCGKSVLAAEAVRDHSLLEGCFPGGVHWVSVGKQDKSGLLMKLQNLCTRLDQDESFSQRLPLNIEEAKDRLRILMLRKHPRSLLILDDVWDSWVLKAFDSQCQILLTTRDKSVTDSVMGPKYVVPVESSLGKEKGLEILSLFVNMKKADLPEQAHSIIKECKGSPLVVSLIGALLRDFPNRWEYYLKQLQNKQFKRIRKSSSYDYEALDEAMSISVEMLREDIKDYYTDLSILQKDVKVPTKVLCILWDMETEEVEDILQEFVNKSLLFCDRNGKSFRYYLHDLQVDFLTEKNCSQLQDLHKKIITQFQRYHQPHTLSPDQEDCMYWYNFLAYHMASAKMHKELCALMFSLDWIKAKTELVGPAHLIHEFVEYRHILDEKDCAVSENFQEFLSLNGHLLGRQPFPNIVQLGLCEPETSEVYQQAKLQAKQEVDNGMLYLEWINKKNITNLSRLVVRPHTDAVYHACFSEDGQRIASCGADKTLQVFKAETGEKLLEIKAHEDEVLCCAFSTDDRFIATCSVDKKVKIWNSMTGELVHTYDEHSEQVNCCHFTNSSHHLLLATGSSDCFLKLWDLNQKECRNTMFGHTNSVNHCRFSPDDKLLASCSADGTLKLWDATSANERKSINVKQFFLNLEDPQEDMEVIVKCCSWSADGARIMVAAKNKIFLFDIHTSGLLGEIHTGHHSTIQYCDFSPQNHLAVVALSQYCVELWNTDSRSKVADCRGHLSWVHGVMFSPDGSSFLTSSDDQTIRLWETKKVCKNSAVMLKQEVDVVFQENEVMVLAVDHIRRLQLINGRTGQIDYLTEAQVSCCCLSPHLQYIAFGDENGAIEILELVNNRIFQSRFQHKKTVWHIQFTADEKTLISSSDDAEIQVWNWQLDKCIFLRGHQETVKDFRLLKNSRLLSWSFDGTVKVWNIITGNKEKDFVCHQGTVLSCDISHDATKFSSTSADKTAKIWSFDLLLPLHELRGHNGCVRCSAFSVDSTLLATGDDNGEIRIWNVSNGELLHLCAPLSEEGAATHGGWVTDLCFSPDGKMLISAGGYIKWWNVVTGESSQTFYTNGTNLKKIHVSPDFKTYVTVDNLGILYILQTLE

[21] = biological target: T3, Alkaline phosphatase, tissue-nonspecific isozyme (Homo sapiens, UniProt P05186); assay: TNAP enzyme activators, dose response, selectivity assay for mouse IAP activator project, biochemical, TNAP isozyme, mouse IAP uHTS hits (AID 488880); format: functional
T3 sequence (P05186 whole entry): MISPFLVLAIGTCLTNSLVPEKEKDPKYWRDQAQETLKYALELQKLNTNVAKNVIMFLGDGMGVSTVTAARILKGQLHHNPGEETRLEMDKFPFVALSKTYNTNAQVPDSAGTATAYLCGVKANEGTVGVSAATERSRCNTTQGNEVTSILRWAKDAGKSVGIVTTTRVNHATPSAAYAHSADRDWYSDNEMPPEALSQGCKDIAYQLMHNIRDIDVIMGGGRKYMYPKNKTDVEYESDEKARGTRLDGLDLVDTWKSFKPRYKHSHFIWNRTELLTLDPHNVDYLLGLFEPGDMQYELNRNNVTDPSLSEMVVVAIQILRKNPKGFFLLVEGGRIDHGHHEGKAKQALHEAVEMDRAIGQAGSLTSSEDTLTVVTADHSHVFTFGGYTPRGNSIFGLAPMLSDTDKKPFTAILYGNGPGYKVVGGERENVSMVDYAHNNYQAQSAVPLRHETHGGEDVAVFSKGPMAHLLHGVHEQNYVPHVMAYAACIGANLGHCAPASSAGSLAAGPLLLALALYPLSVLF

T1 sequence (P49327 whole entry, the tested form may be a part): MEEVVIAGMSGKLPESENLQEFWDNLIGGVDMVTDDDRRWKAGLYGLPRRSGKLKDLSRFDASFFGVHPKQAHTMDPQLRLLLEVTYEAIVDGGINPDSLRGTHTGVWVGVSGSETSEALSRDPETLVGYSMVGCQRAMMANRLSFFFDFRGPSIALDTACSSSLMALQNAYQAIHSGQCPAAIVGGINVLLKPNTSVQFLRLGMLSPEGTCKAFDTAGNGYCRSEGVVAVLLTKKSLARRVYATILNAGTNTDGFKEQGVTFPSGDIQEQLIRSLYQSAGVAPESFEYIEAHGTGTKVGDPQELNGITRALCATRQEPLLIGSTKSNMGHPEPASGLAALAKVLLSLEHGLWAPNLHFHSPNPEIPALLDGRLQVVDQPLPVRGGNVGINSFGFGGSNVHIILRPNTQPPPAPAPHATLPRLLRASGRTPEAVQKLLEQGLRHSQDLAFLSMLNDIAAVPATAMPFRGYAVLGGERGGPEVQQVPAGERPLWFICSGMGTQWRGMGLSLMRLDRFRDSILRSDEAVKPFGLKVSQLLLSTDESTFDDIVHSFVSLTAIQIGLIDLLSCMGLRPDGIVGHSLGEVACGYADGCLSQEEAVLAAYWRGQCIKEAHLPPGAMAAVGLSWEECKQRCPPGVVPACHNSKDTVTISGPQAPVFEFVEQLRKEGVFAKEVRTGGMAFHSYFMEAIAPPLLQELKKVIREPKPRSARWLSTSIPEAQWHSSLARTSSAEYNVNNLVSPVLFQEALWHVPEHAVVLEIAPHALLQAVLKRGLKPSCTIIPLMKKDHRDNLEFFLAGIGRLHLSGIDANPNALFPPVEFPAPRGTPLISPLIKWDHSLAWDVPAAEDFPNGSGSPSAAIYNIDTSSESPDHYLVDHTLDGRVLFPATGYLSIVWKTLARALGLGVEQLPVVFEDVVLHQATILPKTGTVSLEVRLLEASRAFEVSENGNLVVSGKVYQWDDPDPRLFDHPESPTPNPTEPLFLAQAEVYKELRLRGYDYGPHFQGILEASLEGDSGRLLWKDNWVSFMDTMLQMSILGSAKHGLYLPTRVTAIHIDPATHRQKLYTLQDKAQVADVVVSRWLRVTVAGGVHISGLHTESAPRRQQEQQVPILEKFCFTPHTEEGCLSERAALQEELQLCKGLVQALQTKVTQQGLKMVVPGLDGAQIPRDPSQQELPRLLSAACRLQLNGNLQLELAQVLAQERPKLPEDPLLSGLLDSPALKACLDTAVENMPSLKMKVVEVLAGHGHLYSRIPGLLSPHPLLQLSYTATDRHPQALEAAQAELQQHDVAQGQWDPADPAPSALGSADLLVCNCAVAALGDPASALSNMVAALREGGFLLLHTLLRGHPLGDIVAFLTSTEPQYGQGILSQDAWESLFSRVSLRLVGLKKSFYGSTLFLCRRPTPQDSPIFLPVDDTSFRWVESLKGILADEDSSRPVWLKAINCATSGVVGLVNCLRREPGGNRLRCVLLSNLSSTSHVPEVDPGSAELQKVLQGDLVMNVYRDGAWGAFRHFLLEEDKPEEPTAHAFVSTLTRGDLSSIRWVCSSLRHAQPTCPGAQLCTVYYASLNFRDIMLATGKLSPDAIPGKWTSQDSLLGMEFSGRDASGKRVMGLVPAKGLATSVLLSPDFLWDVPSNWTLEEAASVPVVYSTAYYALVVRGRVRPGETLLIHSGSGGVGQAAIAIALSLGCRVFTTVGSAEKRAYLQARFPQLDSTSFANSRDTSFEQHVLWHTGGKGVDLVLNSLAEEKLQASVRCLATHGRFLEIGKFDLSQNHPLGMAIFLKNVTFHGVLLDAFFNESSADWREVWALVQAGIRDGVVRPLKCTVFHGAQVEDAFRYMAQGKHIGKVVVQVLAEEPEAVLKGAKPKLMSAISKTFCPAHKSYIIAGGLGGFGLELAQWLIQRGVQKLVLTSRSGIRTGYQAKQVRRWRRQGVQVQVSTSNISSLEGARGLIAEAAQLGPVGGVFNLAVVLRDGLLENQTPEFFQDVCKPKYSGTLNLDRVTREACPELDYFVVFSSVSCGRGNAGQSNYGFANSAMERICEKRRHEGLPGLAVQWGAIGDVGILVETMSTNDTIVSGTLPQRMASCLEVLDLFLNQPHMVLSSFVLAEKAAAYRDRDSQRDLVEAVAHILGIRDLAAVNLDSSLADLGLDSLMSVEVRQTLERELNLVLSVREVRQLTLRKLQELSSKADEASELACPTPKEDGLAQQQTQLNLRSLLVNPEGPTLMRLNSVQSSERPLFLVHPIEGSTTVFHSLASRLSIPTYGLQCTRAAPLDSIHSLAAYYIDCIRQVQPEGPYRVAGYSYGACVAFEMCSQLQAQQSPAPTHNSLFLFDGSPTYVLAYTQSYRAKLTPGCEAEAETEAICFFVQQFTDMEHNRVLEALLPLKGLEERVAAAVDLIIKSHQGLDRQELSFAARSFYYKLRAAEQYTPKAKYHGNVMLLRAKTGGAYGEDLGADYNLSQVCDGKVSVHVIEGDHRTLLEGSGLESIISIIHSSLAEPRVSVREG

## O=S(=O)(c1ccc(N2CCC(c3ccc(Cl)cc3)=N2)cc1)N(CCO)CCO
Fatty acid synthase [1]
  IC50: 0.434 µM (active)
[2]
  AC50: 13 µM (active)
[3]
  EC50: 1.95 µM (active)
[4]
  EC50: 3.65 µM (active)
[5]
  EC50: 3.12 µM (active)
Fatty acid synthase [6]
  IC50: 0.469 µM (active)

## O=C(Nc1nnc(S(=O)(=O)N2CCCCCC2)s1)c1ccc(Br)cc1
Tumor necrosis factor
  IC50: > 20 µM (inactive)
[7]
  IC50: 5.53 µM (active)
HEK293 [8]
  EC50: 1.56 µM (active)
HEK293 [9]
  IC50: > 20 µM (inactive)
HEK293 [10]
  IC50: 18.1 µM (inactive)
HEK293 [11]
  IC50: > 20 µM (inactive)
[12]
  EC50: 10.4 µM (active)
HEK293 [13]
  IC50: > 20 µM (inactive)
HEK293 [14]
  IC50: 14.2 µM (active)

## Nc1c2c(nc3ccc(Br)cc13)N(C1CCCCC1)CC2
[15]
  IC50: 4.61 µM (active)
[16]
  IC50: 3.06 µM (active)

## Cc1cc(O)c2c(c1O)C(=O)[C@]13C(=C2O)C(=O)[C@@H]2[C@@H](O)[C@H]1[C@@H]1[C@H](O)[C@H]3C(=O)C3=C(O)c4c(O)cc(C)c(O)c4C(=O)[C@]312
[17]
  EC50: 43.1 µM (active)
[18]
  EC50: 63.3 µM (active)
[19]
  IC50: > 80 µM (inactive)
[20]
  IC50: 19.5 µM (active)
[21]
  EC50: 51.2 µM (active)

— ChEMBL document CHEMBL1201862, “PubChem BioAssay data set” (2004)
